Experimental data: patent US20150126465A1, “PROCESS FOR PRODUCING DERIVATIVES OF PYROSTEGIA VENUSTA, DERIVATIVES OF PYROSTEGIA VENUSTA, PHARMACEUTICAL COMPOSITIONS AND ITS USES” (priority 2011, published 2015)
Values after ≈ are worked out from the molar mass of the structure shown. Read-outs that look alike come from different tables or passages of the source.

Tests used:
Format in all cases: cell-based
[1] = system: Candida albicans ATCC 10231; experiment: MIC/CFM by microdilution (CLSI M27-A2); settings: Candida albicans, ATCC10231, read-out: MIC
[2] = system: Candida tropicalis USP B3; experiment: MIC by microdilution (CLSI M27-A2)
[3] = system: Candida tropicalis USP 1658; experiment: MIC by microdilution (CLSI M27-A2)
[4] = system: Candida parapsilosis ATCC 22019; experiment: MIC/CFM by microdilution (CLSI M27-A2)
[5] = system: Candida parapsilosis USP 1933; experiment: MIC/CFM by microdilution (CLSI M27-A2)
[6] = system: Candida albicans USP 1565; experiment: MIC by microdilution (CLSI M27-A2)
[7] = system: Candida guilhermondii USP; experiment: MIC/CFM by microdilution (CLSI M27-A2)
Candida krusei ATCC 6258 [8] = experiment: MIC/CFM by microdilution (CLSI M27-A2)
Candida krusei USP 2223 = experiment: MIC by microdilution (CLSI M27-A2)
[9] = system: Candida albicans OF-M3-20; experiment: MIC/CFM by microdilution (CLSI M27-A2)
Protocol: (§1) Pure substances termed P1 and P2 previously dissolved in 20% DMSO, were diluted in RPMI medium, with final concentrations of 96 μg.mL-1. […] The same was also tested individually, diluted in RPMI medium, with initial concentration of 1 μL.mL-1. […] Cultures of Candida sp. were prepared and standardized in […] saline solution at 0.85%. For inoculums standardization, a spectrophotometer equipment was used, with wavelength at 530 nm and absorbance adjustment between 0.130 and 0.150, having as white the saline solution free of inoculum or any other contaminant, corresponding to concentrations of 10^6 CFU/mL. In this condition the inoculum “mother” was diluted 50 times and from this inoculum “child” the dilution was performed 20 times to obtain a standard inoculum in 10^3 cells per well. […] To aid in the growth view, were added to the wells dye 50 μL 2,3,5-triphenyltetrazolium chloride (TTC) at 5 mg.mL “1, being performed the readings after 4 hours of incubation. Prior to the addition of dye, aliquots of 96-well plate were transferred to Petri with Agar-Sabouraud Dextrose to determine the Minimum Fungicidal Concentration. Plates were incubated for 24 hours at 35° C.

[10] = system: Candida albicans OF-M7-19; experiment: MIC/CFM by microdilution (CLSI M27-A2)
Protocol: as §1

Candida albicans USP 1 = experiment: MIC/CFM by microdilution (CLSI M27-A2)
Protocol: as §1

[11] = system: Microsporum canis ATCC 32903; experiment: MIC by microdilution, filamentous fungi (CLSI M38-A); settings: Table 13, Microsporum canis ATCC 32903, 7 days, 28° C.
Protocol: (§2) Pure substances termed P1 and P2 previously dissolved in 20% DMSO, were diluted in RPMI medium, with final concentrations of 96 μg.mL-1. […] Cultures of filamentous fungi described below were inoculated in Agar-Batata Dextrose medium and inoculated for 7 days, at 28° C. Colonies of cultures inoculated for 7 days in an oven at 28° C. were shrouded with 0.85% saline solution, scraped and then transferred to conical tubes. After resting for 5 minutes, the supernatant was transferred to new conical tubes for subsequent quantification in spectrophotometer, at 530 nm, with the transmittance adjustment of 80-82% for A. niger and 70% for other microorganisms. After adjustment, there was a 1:50 dilution in RPM. The determination of Minimum Inhibitory Concentration was performed after 7 days, at 28° C. After the incubation period, aliquots of 96-well plates were transferred to Petri plates with Potato Dextrose Agar, to determine the Minimum Fungicidal Concentration. Plates were inoculated for more 7 days, at 28° C.

[12] = system: Phomopsis longicolla (soy isolate); experiment: as above; settings: Table 13, Phomopsis longicolla- soy, 7 days, 28° C.
Protocol: as §2

[13] = system: Trichophyton menthagrophyton ATCC 9533; experiment: as above; settings: Table 13, Trichophyton menthagrophyton ATCC 9533, 7 days, 28° C.
Protocol: as §2

C. Albicans USP 2 = experiment: MIC/CFM against Candida sp. strains; settings: Table 14, C. Albicans USP 2
Candida glabrata ATCC = experiment: MIC/CFM against Candida sp. strains; settings: Nakaseomyces glabratus; Table 14, Candida glabrata ATCC
[14] = system: Trichophyton rubrum ATCC MYA-3108; experiment: MIC by microdilution, filamentous fungi (CLSI M38-A); settings: Table 11, Trichophyton rubrum ATCC MYA-3108
[15] = system: Candida albicans ATCC 10231; experiment: Diffusion in Agar, halo of inhibition; set-up: unit not given here; settings: 20 μL per hole, 48 hours at 37° C., controls 80 μg · mL^−1
Protocol: (§3) Cultures of yeasts described below were inoculated in Agar-Sabouraud Dextrose medium and inoculated for 24 hours, at 35° C. Cultures of Candida sp. were prepared and standardized in […] saline solution at 0.85%. For inoculum standardization a spectrophotometer equipment was used with wavelength at 530 nm and absorbance adjustment between 0.130 and 0.150, having as white the saline solution free of inoculum or any other contaminant, corresponding to concentrations of 10^6 CFU/mL. In Petri plates (150×15 mm), were distributed RPMI medium with 0.8% Agar. To these plates, it was added 1 mL of the microorganism suspension in the concentration of 10^6 CFU/mL. After inundation, the suspension excess was removed with the aid of a pipette. With the plate surface already dry, hole of approximately 6.0 mm were made, adding to each hole 20 μL of the samples and control. The plates were then incubated for 48 hours at 37° C., when halo of inhibitions were measured.

[16] = system: Candida guilhermondii USP; experiment: Diffusion in Agar, halo of inhibition; set-up: unit not given here; settings: Candida guilhemondii USP; 20 μL per hole, 48 hours at 37° C.; controls 80 μg · mL^−1
Protocol: as §3

Candida krusei ATCC 6258 [17] = experiment: Diffusion in Agar, halo of inhibition; set-up: unit not given here; settings: 20 μL per hole, 48 hours at 37° C., controls 80 μg · mL^−1
Protocol: as §3

[18] = system: Candida parapsilosis ATCC 22019; experiment: Diffusion in Agar, halo of inhibition; set-up: unit not given here; settings: 20 μL per hole, 48 hours at 37° C., controls 80 μg · mL^−1
Protocol: as §3

[19] = system: Candida tropicalis USP B3; experiment: Diffusion in Agar, halo of inhibition; set-up: unit not given here; settings: 20 μL per hole, 48 hours at 37° C., controls 80 μg · mL^−1
Protocol: as §3

What does the source list for C[C@@H]1O[C@@H](O[C@@H]2[C@@H](O)[C@H](OCCc3ccc(O)c(O)c3)O[C@H](CO)[C@H]2OC(=O)/C=C/c2ccc(O)c(O)c2)[C@H](O)[C@H](O)[C@H]1O [Fraction P2, verbascoside]?
MIC ([1]; Table 12, C. albicans ATCC 10231, 48 h, 35° C.): 3 µg/mL (≈ 4.8 µM); MIC ([1]; Table 14, C. Albicans ATCC 10231): 1.5 µg/mL (≈ 2.4 µM); MIC ([2]; Candida tropicalis, USPB3, Table 14, C. Tropicalis UPS B3, read-out: MIC): 1.5 µg/mL (≈ 2.4 µM); MIC ([3]; Candida tropicalis, USP1658, Table 12, C. tropicalis USP 1658, 48 h, 35° C., read-out: MIC): 1.5 µg/mL (≈ 2.4 µM); MIC ([4]; Lodderomyces parapsilosis, ATCC22019, Table 12, C. parapsilosis ATCC 22019, 48 h, 35° C., read-out: MIC): 0.375 µg/mL (≈ 0.6 µM); MIC ([4]; Lodderomyces parapsilosis, ATCC22019, Table 14, C. parapsilosis ATCC 22019, read-out: MIC): 1.5 µg/mL (≈ 2.4 µM); MIC ([5]; Lodderomyces parapsilosis, USP1933, Table 12, C. parapsilosis USP 1933, 48 h, 35° C., read-out: MIC): 0.75 µg/mL (≈ 1.2 µM); MIC ([5]; Lodderomyces parapsilosis, USP1933, Table 14, C. parapsilosis USP 1933 ATCC, read-out: MIC): 1.5 µg/mL (≈ 2.4 µM); MIC ([6]; Candida albicans, USP1565, Table 12, C. albicans USP 1565, 48 h, 35° C., read-out: MIC): 0.375 µg/mL (≈ 0.6 µM); MIC ([7]; Candida, Table 12, C. guilhermondii USP, 48 h, 35° C., read-out: MIC): 0.375 µg/mL (≈ 0.6 µM); MIC ([7]; Table 14, Candida guilhermondi USPATCC, read-out: MIC): 0.75 µg/mL (≈ 1.2 µM); MIC (Candida krusei ATCC 6258 [8]; Pichia kudriavzevii, ATCC6258, Table 12, C. krusei ATCC 6258, 48 h, 35° C., read-out: MIC): 0.375 µg/mL (≈ 0.6 µM); MIC (Candida krusei ATCC 6258 [8]; Pichia kudriavzevii, ATCC6258, Table 14, C. krusei ATCC, read-out: MIC): 1.5 µg/mL (≈ 2.4 µM); MIC (Candida krusei USP 2223; Pichia kudriavzevii, USP2223, Table 12, C. krusei USP 2223, 48 h, 35° C., read-out: MIC): 0.75 µg/mL (≈ 1.2 µM); MIC (Candida krusei USP 2223; Pichia kudriavzevii, USP2223, Table 14, C. krusei USP 2223, read-out: MIC): 1.5 µg/mL (≈ 2.4 µM); MIC ([9]; Candida albicans, OFM320, Table 12, C. albicans OF M3-20, 48 h, 35° C., read-out: MIC): 0.375 µg/mL (≈ 0.6 µM); MIC ([9]; Candida albicans, OFM320, Table 14, C. Albicans OF M3-20, read-out: MIC): 1.5 µg/mL (≈ 2.4 µM); MIC ([10]; Candida albicans, OFM719, Table 12, C. albicans OF M7-19, 48 h, 35° C., read-out: MIC): 0.375 µg/mL (≈ 0.6 µM); MIC ([10]; Candida albicans, OFM719, Table 14, C. Albicans OF M7-19, read-out: MIC): 0.75 µg/mL (≈ 1.2 µM); MIC (Candida albicans USP 1; Candida albicans, USP1, Table 12, C. albicans USP 1, 48 h, 35° C., read-out: MIC): 0.375 µg/mL (≈ 0.6 µM); MIC (Candida albicans USP 1; Candida albicans, USP1, Table 14, C. Albicans USP 1, read-out: MIC): 1.5 µg/mL (≈ 2.4 µM); MIC ([11]; ATCC32903, 168 h, read-out: MIC): 12 µg/mL (≈ 19.2 µM); MIC ([12]; Diaporthe longicolla, 168 h, read-out: MIC): 16 µg/mL (≈ 25.6 µM); MIC ([13]; ATCC9533, 168 h, read-out: MIC): 48 µg/mL (≈ 76.9 µM); MIC (C. Albicans USP 2): 1.5 µg/mL (≈ 2.4 µM); MIC (Candida glabrata ATCC): 0.75 µg/mL (≈ 1.2 µM)

Which MIC ([2]; Table 11, C. Tropicalis USP B3) does the source give for Nistatina here?
Its MIC is 6.25 µg/mL.

And the MIC ([3]; Table 11, C. Tropicalis USP 1658)?
Its MIC is 6.25 µg/mL.

And the MIC ([3]; Table 12, C. tropicalis USP 1658, 48 h, 35° C.)?
The MIC was 6.125 µg/mL.

And the MIC ([4]; Table 12, C. parapsilosis ATCC 22019, 48 h, 35° C.)?
Its MIC is 6.25 µg/mL.

And the MIC ([5]; Table 11, C. parapsilosis USP 1933)?
The MIC was 6.25 µg/mL.

What about the MIC ([5]; Table 12, C. parapsilosis USP 1933, 48 h, 35° C.) of the same molecule?
Its MIC is 12.5 µg/mL.

And the MIC ([6]; Table 11, C. Albicans USP 1565)?
Its MIC is 6.25 µg/mL.

What about the MIC ([6]; Table 12, C. albicans USP 1565, 48 h, 35° C.) of the same molecule?
The MIC was 6.25 µg/mL.

What about the MIC ([7]; Table 11, C. guilhermondii USP) of the same molecule?
The MIC was 3.125 µg/mL.

And the MIC ([7]; Table 12, C. guilhermondii USP, 48 h, 35° C.)?
Its MIC is 6.25 µg/mL.

And the MIC (Candida krusei ATCC 6258 [8]; Table 11, C. krusei ATCC 6258)?
The MIC was 6.25 µg/mL.

And the MIC (Candida krusei ATCC 6258 [8]; Table 12, C. krusei ATCC 6258, 48 h, 35° C.)?
The MIC was 6.25 µg/mL.

And the MIC (Candida krusei USP 2223; Table 11, C. krusei ATCC 2223)?
The MIC was 6.25 µg/mL.

And the MIC (Candida krusei USP 2223; Table 12, C. krusei USP 2223, 48 h, 35° C.)?
Its MIC is 6.25 µg/mL.

And the MIC [14]?
Its MIC is 3.125 µg/mL.

And the MIC ([9]; Table 12, C. albicans OF M3-20, 48 h, 35° C.)?
Its MIC is 12.5 µg/mL.

And the MIC ([10]; Table 12, C. albicans OF M7-19, 48 h, 35° C.)?
The MIC was 12.5 µg/mL.

And the MIC (Candida albicans USP 1; Table 12, C. albicans USP 1, 48 h, 35° C.)?
The MIC was 6.25 µg/mL.

What about the MIC [11] of the same molecule?
The MIC was 12.5 µg/mL.

What about the MIC [12] of the same molecule?
Its MIC is 3.125 µg/mL.

What about the MIC [13] of the same molecule?
Its MIC is 12.5 µg/mL.

What about the Halo of inhibition [15] of the same molecule?
The Halo of inhibition was 1.5.

And the Halo of inhibition [16]?
Its Halo of inhibition is 1.1.

What about the Halo of inhibition (Candida krusei ATCC 6258 [17]) of the same molecule?
The Halo of inhibition was 1.2.

What about the Halo of inhibition [18] of the same molecule?
The Halo of inhibition was 1.6.

And the Halo of inhibition [19]?
Its Halo of inhibition is 0.
